pIC50: −log10 of the molar value.
How the values were obtained:
hENPP2 [1] = target: T1, hENPP2 (UniProtKB/SwissProt Q13822) (Homo sapiens (Human), UniProt Q13822); assay: fluorescent hENPP2 biochemical assay, FS-3 as substrate; settings: read-out: FS3-IC50
Protocol: Compound IC50 values are determined in a fluorescent hENPP2 (UniProtKB/SwissProt Sequence ref Q13822) biochemical assay using the fluorogenic autotaxin substrate FS-3 as substrate. FS-3 is a doubly labeled analog of LPC wherein the fluorophore is quenched through intramolecular energy transfer. Without hENPP2, the emission of the probe is quenched. If the substrate is hydrolyzed by hENPP2, the emission of the probe is not quenched anymore resulting in a fluorescence increase.
The enzyme is diluted in 50 mM Tris-HCl pH 8.0, 250 mM NaCl, 5 mM KCl, 1 mM MgCl2, 1 mM CaCl2, 0.1% fatty acid free BSA in a total volume of 20 μL. Enzyme mixture is added to compounds and the resulting mixture is incubated for 30 min at room temperature under shaking. The reaction is started by the addition of 20 μL of 0.75 μM FS-3 diluted in the same buffer as described above and the mixture is incubated at 30° C. for 30 min. Fluorescence is read on the Envision (Excitation 485 nm, emission 520 nm).

hENPP2 [2] = target: T1, hENPP2; assay: hENPP2 biochemical assay, LPC as substrate; settings: LPC (palmitoyl 16:0) as substrate
Summary of the method: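 Human ENPP2 in 50 mM Tris-HCl pH 8.5, 500 mM NaCl, 5 mM KCl, 10 mM CaCl2, 0.1% fatty-acid-free BSA, reacted 30 min at 37 °C with LPC 16:0 (150 µM solution added 1:1). Released choline measured via choline oxidase/peroxidase/TOOS/4-aminoantipyrine quinoneimine dye at 555 nm; IC50 reported.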

Compound	pIC50 (hENPP2 [1])	pIC50 (hENPP2 [2])
CCc1nc2ccc(C3CCN(S(=O)(=O)CCCN4CCCC4)CC3)cn2c1N(C)c1nc(-c2ccc(F)cc2)cs1 [Compound 89, {2-Ethyl-6-[1-(3-pyrrolidin-1-yl-propane-1-sulfonyl)-piperidin-4-yl]-imidazo[1,2-a]pyridin-3-yl}-[4-(4-fluoro-phenyl)-thiazol-2-yl]-methyl-amine]	7.00 to 11.00	6.30 to 7.00
CCc1nc2ccc(N3CCN(CC(=O)N4CCC(NC(C)=O)C4)CC3)cn2c1N(C)c1nc(-c2ccc(F)cc2)cs1 (centres unmarked) [Compound 27, N-(1-(2-(4-(2-ethyl-3-((4-(4-fluorophenyl)thiazol-2-yl)(methyl)amino)imidazo[1,2-a]pyridin-6-yl)piperazin-1-yl)acetoyl)pyrrolidin-3-yl)acetamide]	7.00 to 11.00	6.30 to 7.00
CCC(=O)N1CCC(c2ccc3nc(CC)c(N(C)c4nc(-c5ccc(F)cc5)cs4)n3c2)CC1 [Compound 215, 1-(4-(2-ethyl-3-((4-(4-fluorophenyl)thiazol-2-yl)(methyl)amino)imidazo[1,2-a]pyridin-6-yl)piperidin-1-yl)propan-1-one]	7.00 to 11.00	6.30 to 7.00
CCc1nc2ccc(N3CCN(Cc4ncon4)CC3)cn2c1N(C)c1nc(-c2ccc(F)cc2)cs1 [Compound 41, N-(6-(4-((1,2,4-oxadiazol-3-yl)methyl)piperazin-1-yl)-2-ethylimidazo[1,2-a]pyridin-3-yl)-4-(4-fluorophenyl)-N-methylthiazol-2-amine]	7.00 to 11.00	< 6.00
CCc1nc2ccc(C3CCN(C(C)C)CC3)cn2c1N(C)c1nc(-c2ccc(F)cc2)cs1 [Compound 218, N-(2-ethyl-6-(1-isopropylpiperidin-4-yl)imidazo[1,2-a]pyridin-3-yl)-4-(4-fluorophenyl)-N-methylthiazol-2-amine]	7.00 to 11.00	< 6.00
CCc1nc2ccc(N3CCN(CC(=O)N(C)C)CC3)cn2c1N(C)c1nc(-c2ccc(F)cc2C#N)cs1 [Compound 168, 2-(4-(3-((4-(2-cyano-4-fluorophenyl)thiazol-2-yl)(methyl)amino)-2-ethylimidazo[1,2-a]pyridin-6-yl)piperazin-1-yl)-N,N-dimethylacetamide]	7.00 to 11.00	7.00 to 11.00
CCc1nc2ccc(C3CCN(C(=O)CN4CC(O)C4)CC3)cn2c1N(C)c1nc(-c2ccc(F)cc2)cs1 [Compound 128, 1-(4-(2-ethyl-3-((4-(4-fluorophenyl)thiazol-2-yl)(methyl)amino)imidazo[1,2-a]pyridin-6-yl)piperidin-1-yl)-2-(3-hydroxyazetidin-1-yl)ethanone]	7.00 to 11.00	6.30 to 7.00
CCc1nc2ccc(N3CCN(C(=O)CO)CC3)cn2c1N(C)c1nc(-c2ccc(F)cc2)cs1 [Compound 50, 1-(4-(2-ethyl-3-((4-(4-fluorophenyl)thiazol-2-yl)(methyl)amino)imidazo[1,2-a]pyridin-6-yl)piperazin-1-yl)-2-hydroxyethanone]	7.00 to 11.00	6.00 to 6.30
CCc1nc2ccc(N3CCN(S(=O)(=O)CC(=O)OC)CC3)cn2c1N(C)c1nc(-c2ccc(F)cc2)cs1 [Compound 59, methyl 2-(4-(2-ethyl-3-((4-(4-fluorophenyl)thiazol-2-yl)(methyl)amino)imidazo[1,2-a]pyridin-6-yl)piperazin-1-ylsulfonyl)acetate]	7.00 to 11.00	< 6.00
CCc1nc2ccc(N3CCCCS3(=O)=O)cn2c1N(C)c1nc(-c2ccc(Cl)cc2)cs1 [Compound 207, 2-(2-ethyl-4-((4-(4-chlorophenyl)thiazol-2-yl)(methyl)amino)imidazo[1,2-a]pyridin-6-yl)-1-[1,2]thiazinane-1,1-dioxide]	7.00 to 11.00	< 6.00
CCc1nc2ccc(C3=CCS(=O)(=O)CC3)cn2c1N(C)c1nc(-c2ccc(Cl)cc2)cs1 [Compound 76, 4-(2-ethyl-3-((4-(4-chlorophenyl)thiazol-2-yl)(methyl)amino)imidazo[1,2-a]pyridin-6-yl)-3,6-dihydro-2H-thiopyran 1,1-dioxide]	7.00 to 11.00	< 6.00
CCc1nc2ccc(N3CCN(C(=O)C4CCN(S(C)(=O)=O)C4)CC3)cn2c1N(C)c1nc(-c2ccc(F)cc2)cs1 (centres unmarked) [Compound 49, (4-(2-ethyl-3-((4-(4-fluorophenyl)thiazol-2-yl)(methyl)amino)imidazo[1,2-a]pyridin-6-yl)piperazin-1-yl)(1-(methylsulfonyl)pyrrolidin-3-yl) methanone]	7.00 to 11.00	< 6.00
CCOC(=O)CN1CCN(c2ccc3nc(CC)c(N(C)c4nc(-c5ccc(F)cc5)cs4)n3c2)CC1 [Compound 36, ethyl 2-(4-(2-ethyl-3-((4-(4-fluorophenyl)thiazol-2-yl)(methyl)amino)imidazo [1,2-a]pyridin-6-yl)piperazin-1-yl)acetate]	7.00 to 11.00	6.30 to 7.00
CCc1nc2ccc(C3CCN(CC(=O)N4CC(F)(F)C4)CC3)cn2c1N(C)c1nc(-c2ccc(F)cc2)cs1 [Compound 124, 1-(3,3-difluoroazetidin-1-yl)-2-(4-(2-ethyl-3-((4-(4-fluorophenyl)thiazol-2-yl)(methyl)amino)imidazo[1,2-a]pyridin-6-yl)piperidin-1-yl)ethanone]	7.00 to 11.00	< 6.00
CCc1nc2ccc(N3CCN(S(C)(=O)=O)CC3=O)cn2c1N(C)c1nc(-c2ccc(F)cc2)cs1 [Compound 65, 1-(2-ethyl-3-((4-(4-fluorophenyl)thiazol-2-yl)(methyl)amino)imidazo[1,2-a]pyridin-6-yl)-4-(methylsulfonyl) piperazin-2-one]	7.00 to 11.00	< 6.00
CCc1nc2ccc(N3CCN(CC(=O)N(C)C)CC3)cn2c1N(C)c1nc(-c2ccc(F)cc2)cs1 [Compound 35, 2-(4-(2-ethyl-3-((4-(4-fluorophenyl)thiazol-2-yl)(methyl)amino)imidazo[1,2-a]pyridin-6-yl)piperazin-1-yl)-N,N-dimethylacetamide]	7.00 to 11.00	6.30 to 7.00
CCc1nc2ccc(N3CCN(C(=O)C4CCNC4)CC3)cn2c1N(C)c1nc(-c2ccc(F)cc2)cs1 (centres unmarked) [Compound 47, (4-(2-ethyl-3-((4-(4-fluorophenyl)thiazol-2-yl)(methyl)amino)imidazo[1,2-a]pyridin-6-yl)piperazin-1-yl)(pyrrolidin-3-yl)methanone]	7.00 to 11.00	< 6.00
CCc1nc2ccc(C3=CCN(S(C)(=O)=O)C3)cn2c1N(C)c1nc(-c2ccc(Cl)cc2)cs1 [Compound 68, 4-(4-chlorophenyl)-N-(2-ethyl-6-(1-(methylsulfonyl)-2,5-dihydro-1H-pyrrol-3-yl)imidazo[1,2-a]pyridin-3-yl)-N-methylthiazol-2-amine]	7.00 to 11.00	< 6.00
CCc1nc2ccc(N3CCN(C(=O)C4CCC(=O)N4)CC3)cn2c1N(C)c1nc(-c2ccc(F)cc2)cs1 (centres unmarked) [Compound 201, 5-(4-(2-ethyl-3-((4-(4-fluorophenyl)thiazol-2-yl)(methyl)amino)imidazo[1,2-a]pyridin-6-yl)piperazine-1-carbonyl)pyrrolidin-2-one]	7.00 to 11.00	< 6.00
CCc1nc2ccc(C3=CCN(S(=O)(=O)CCCOC(C)=O)CC3)cn2c1N(C)c1nc(-c2ccc(F)cc2)cs1 [Compound 74, Acetic acid 3-[4-(2-ethyl-3-{[4-(4-fluoro-phenyl)-thiazol-2-yl]-methyl-amino}-imidazo[1,2-a]pyridin-6-yl)-3,6-dihydro-2H-pyridine-1-sulfonyl]-propyl ester]	7.00 to 11.00	< 6.00
CCc1nc2ccc(C3=CCOCC3)cn2c1N(C)c1nc(-c2ccc(F)cc2)cs1 [Compound 220, N-(6-(3,6-dihydro-2H-pyran-4-yl)-2-ethylimidazo[1,2-a]pyridin-3-yl)-4-(4-fluorophenyl)-N-methylthiazol-2-amine]	7.00 to 11.00	< 6.00
CCc1nc2ccc(N3CCCS3(=O)=O)cn2c1N(C)c1nc(-c2ccc(F)cc2)cs1 [Compound 229, [6-(1,1-Dioxo-isothiazolidin-2-yl)-2-ethyl-imidazo[1,2-a]pyridin-3-yl]-[4-(4-fluoro-phenyl)-thiazol-2-yl]-methyl-amine]	6.30 to 7.00	< 6.00
CCc1nc2ccc(N3CCN(CC(=O)O)CC3)cn2c1N(C)c1nc(-c2ccc(F)cc2)cs1 [Compound 42, 2-(4-(2-ethyl-3-((4-(4-fluorophenyl)thiazol-2-yl)(methyl)amino)imidazo[1,2-a]pyridin-6-yl)piperazin-1-yl)acetic acid]	7.00 to 11.00	< 6.00
CCc1nc2ccc(C3CCN(S(C)(=O)=O)CC3)cn2c1N(C)c1nc(-c2ccc(F)cc2NC(C)=O)cs1 [Compound 106, N-(2-(2-((2-ethyl-6-(1-(methylsulfonyl)piperidin-4-yl)imidazo[1,2-a]pyridin-3-yl)(methyl)amino)thiazol-4-yl)-5-fluorophenyl)acetamide]	7.00 to 11.00	< 6.00
CCc1nc2ccc(C3CCN(C4CN(C(C)=O)C4)CC3)cn2c1N(C)c1nc(-c2ccc(F)cc2)cs1 [Compound 134, 1-(3-(4-(2-ethyl-3-((4-(4-fluorophenyl)thiazol-2-yl)(methyl)amino)imidazo[1,2-a]pyridin-6-yl)piperidin-1-yl)azetidin-1-yl)ethanone]	7.00 to 11.00	6.00 to 6.30

From patent publication US9670204B2, “Compounds and pharmaceutical compositions thereof for the treatment of inflammatory disorders” (Galapagos NV, priority 2013, dated 2017)
